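Interpolation was linear, between the two tested concentrations surrounding the appropriate level; five concentrations were tested over 48 hours in 96-well plates. TGI: concentration producing complete growth inhibition.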
Key:
Experiment in all cases: NCI anticancer screen, dose series, 48 h
MALME-3M melanoma = test system: MALME-3M melanoma
SK-MEL-28 melanoma = test system: SK-MEL-28 melanoma
UO-31 renal = test system: UO-31 renal
NCI/ADR-RES ovarian = test system: NCI/ADR-RES ovarian
K-562 leukemia = test system: K-562 leukemia
HCC-2998 colon = test system: HCC-2998 colon
RPMI-8226 leukemia = test system: RPMI-8226 leukemia
ACHN renal = test system: ACHN renal
OVCAR-5 ovarian = test system: OVCAR-5 ovarian
A498 renal = test system: A498 renal
UACC-62 melanoma = test system: UACC-62 melanoma
COLO 205 colon = test system: COLO 205 colon
HL-60(TB) leukemia = test system: HL-60(TB) leukemia
U251 CNS = test system: U251 CNS
M14 melanoma = test system: M14 melanoma
MDA-MB-435 = test system: MDA-MB-435
A549 NSCLC = test system: A549 NSCLC
SK-MEL-5 melanoma = test system: SK-MEL-5 melanoma
NCI-H23 lung = test system: NCI-H23 lung
MOLT-4 leukemia = test system: MOLT-4 leukemia

Compound | TGI (MALME-3M melanoma) [µM] | TGI (SK-MEL-28 melanoma) [µM] | TGI (UO-31 renal) [µM] | TGI (NCI/ADR-RES ovarian) [µM] | TGI (K-562 leukemia) [µM] | TGI (HCC-2998 colon) [µM] | TGI (RPMI-8226 leukemia) [µM] | TGI (ACHN renal) [µM] | TGI (OVCAR-5 ovarian) [µM] | TGI (A498 renal) [µM] | TGI (UACC-62 melanoma) [µM] | TGI (COLO 205 colon) [µM] | TGI (HL-60(TB) leukemia) [µM] | TGI (U251 CNS) [µM] | TGI (M14 melanoma) [µM] | TGI (MDA-MB-435) [µM] | TGI (A549 NSCLC) [µM] | TGI (SK-MEL-5 melanoma) [µM] | TGI (NCI-H23 lung) [µM] | TGI (MOLT-4 leukemia) [µM]
CSC(=NCCCCN=C(NS(=O)(=O)c1ccc(Cl)cc1)SC)NS(=O)(=O)c1ccc(Cl)cc1 | > 100 | > 100 | > 100 | > 100 | > 100 | > 100 | > 100 | > 100 | > 100 | > 100 | > 100 | > 100 | > 100 | > 100 | > 100 | > 100 | – | – | – | –
Cc1cccc(N=Nc2c(C)nn(C(=O)CC(=O)Nc3ccccc3)c2C)c1 | > 100 | > 100 | > 100 | > 100 | – | > 100 | > 100 | > 100 | > 100 | > 100 | > 100 | > 100 | > 100 | > 100 | > 100 | > 100 | > 100 | > 100 | > 100 | > 100
CC(NC(=O)C(N)Cc1ccc(O)cn1)C(=O)O (stereo not drawn) | > 100 | > 100 | > 100 | > 100 | > 100 | > 100 | > 100 | > 100 | > 100 | > 100 | – | > 100 | > 100 | > 100 | – | > 100 | > 100 | > 100 | > 100 | > 100
O=CN1CCN(C(=O)c2cc(Cl)cc(Cl)c2)C1=S | 20.7 | 39.2 | – | 80.7 | 97.5 | 31.9 | 5.64 | 31.7 | 44.2 | 29.6 | 31.2 | 33.8 | 29.7 | 36 | 29.2 | 28.1 | 39.8 | – | 32.5 | 42.7
Cn1c(=O)c2c(no[n+]2[O-])n(C)c1=O | 40 | – | 97.1 | 46 | > 100 | > 100 | > 100 | > 100 | > 100 | 48 | 40.5 | 43.9 | – | 49.4 | > 100 | 38.3 | > 100 | > 100 | 47.9 | > 100
COc1[nH]c(C(Cl)(Cl)Cl)c(Cl)c(=O)c1Cl | > 100 | > 100 | > 100 | > 100 | > 100 | > 100 | > 100 | > 100 | > 100 | > 100 | > 100 | > 100 | > 100 | > 100 | – | > 100 | > 100 | > 100 | > 100 | > 100
COC(=O)C[C@@H]1C(C)(C)[C@@H]2O[C@@]34C[C@@H]2C(=O)[C@]1(C)[C@H]3CC[C@@]1(C)[C@H](c2ccoc2)OC(=O)C[C@]14O | > 100 | > 100 | – | > 100 | > 100 | – | > 100 | > 100 | > 100 | > 100 | > 100 | > 100 | > 100 | > 100 | > 100 | > 100 | > 100 | > 100 | > 100 | > 100
COC1O[C@@H]2CCN3C(=O)[C@@H](OC(=O)c4ccc([N+](=O)[O-])cc4)[C@H]1C23 (stereo partly drawn) | – | – | > 100 | > 100 | > 100 | > 100 | > 100 | > 100 | > 100 | > 100 | > 100 | > 100 | – | > 100 | > 100 | > 100 | > 100 | > 100 | > 100 | > 100
COC(=O)C1=NN2c3ccccc3C(=O)OCCC2(C)C1 (stereo not drawn) | > 100 | > 100 | > 100 | > 100 | > 100 | > 100 | > 100 | > 100 | > 100 | > 100 | > 100 | > 100 | > 100 | > 100 | – | > 100 | > 100 | > 100 | > 100 | > 100
COc1ccc(CNc2nc3cc(C(F)(F)F)ccc3nc2C(=O)O)cc1OC | – | > 100 | > 100 | > 100 | 74.7 | 95.8 | 94.6 | > 100 | > 100 | 73.2 | 45.6 | 57.7 | – | 73.5 | > 100 | 80.2 | > 100 | 43.7 | > 100 | 55.7
CN(CCCNC(=O)c1cn(C)c2c1ccc1cc(Cl)c(Cl)cc12)CCCNC(=O)c1cn(C)c2c1ccc1cc(Cl)c(Cl)cc12 | 31.8 | 42 | 39.6 | 33.1 | 26.2 | 18.6 | – | 27.2 | 31.2 | 28 | 31.7 | 9.58 | 8.32 | 11.4 | 27.5 | 26.4 | 32.4 | 28.7 | 31.4 | 30.3
O=C(C#CP(=O)(O)c1ccccc1)c1ccccc1 | > 100 | > 100 | 4.14 | > 100 | > 100 | > 100 | – | > 100 | > 100 | > 100 | > 100 | > 100 | – | > 100 | > 100 | > 100 | > 100 | > 100 | > 100 | –
CC(C)(C)[Si](C)(C)OCCCCC1CC2(S(=O)(=O)C3=CC=C=C=C3)ON1CC2S(=O)(=O)c1ccccc1 (stereo not drawn) | – | > 100 | > 100 | > 100 | > 100 | > 100 | > 100 | > 100 | > 100 | > 100 | > 100 | > 100 | – | > 100 | > 100 | > 100 | > 100 | > 100 | > 100 | > 100
C[C@]12CCC(=O)C=C1CC[C@@H]1[C@@H]2CC[C@]2(C)C(=O)[C@H](n3ccnc3)C[C@@H]12 | > 100 | > 100 | > 100 | > 100 | > 100 | – | > 100 | > 100 | > 100 | > 100 | > 100 | > 100 | > 100 | > 100 | > 100 | > 100 | > 100 | > 100 | > 100 | > 100
O=C1c2cccnc2S(=O)N1Cc1ccccc1 (stereo not drawn) | > 100 | > 100 | > 100 | > 100 | > 100 | > 100 | > 100 | > 100 | > 100 | > 100 | > 100 | > 100 | – | > 100 | > 100 | > 100 | > 100 | > 100 | > 100 | > 100
O=C1C2=Cc3ccccc3OC2(O)Oc2cc(O)ccc21 (stereo not drawn) | > 100 | > 100 | – | > 100 | > 100 | > 100 | > 100 | > 100 | > 100 | > 100 | > 100 | > 100 | – | > 100 | > 100 | > 100 | > 100 | > 100 | > 100 | > 100
Cc1cc2c(cc1Cl)SC(N/N=C(\N)c1ccc(Cl)cc1)=NS2(=O)=O | > 100 | > 100 | > 100 | > 100 | > 100 | > 100 | – | > 100 | > 100 | 72.9 | > 100 | > 100 | > 100 | > 100 | > 100 | > 100 | > 100 | > 100 | > 100 | > 100
COc1ccc(C(=O)N2CCc3c([nH]c4ccccc34)C2C(=O)O)o1 (stereo not drawn) | > 10 | > 10 | – | > 10 | > 10 | > 10 | > 10 | > 10 | – | > 10 | > 10 | > 10 | > 10 | > 10 | > 10 | > 10 | > 10 | > 10 | – | > 10
COc1cccc2c(NNc3ccccc3)c3ccc([N+](=O)[O-])cc3nc12 | > 100 | > 100 | 61 | > 100 | > 100 | > 100 | > 100 | > 100 | > 100 | > 100 | > 100 | > 100 | – | > 100 | > 100 | > 100 | > 100 | > 100 | > 100 | 5.84
CC(=O)OCCCCn1cnc2nc(Nc3ccccc3)nc(Cl)c21 | > 100 | > 100 | > 100 | > 100 | > 100 | > 100 | > 100 | > 100 | – | > 100 | > 100 | > 100 | > 100 | > 100 | > 100 | > 100 | > 100 | > 100 | – | > 100
NCC#CCNCCCN1CC1 | > 100 | > 100 | – | > 100 | > 100 | > 100 | > 100 | > 100 | > 100 | > 100 | > 100 | > 100 | > 100 | > 100 | > 100 | > 100 | > 100 | > 100 | > 100 | –
CCOC(=O)c1nc2ccccc2nc1NCc1ccc(OC)cc1 | > 100 | > 100 | > 100 | > 100 | > 100 | > 100 | > 100 | > 100 | > 100 | > 100 | > 100 | > 100 | > 100 | > 100 | – | > 100 | > 100 | > 100 | > 100 | > 100
OC(c1cccnc1)C(F)(F)c1nc2ccccc2o1 (stereo not drawn) | – | > 100 | > 100 | > 100 | > 100 | > 100 | > 100 | > 100 | – | > 100 | > 100 | > 100 | > 100 | > 100 | – | > 100 | – | > 100 | > 100 | > 100
Cc1ccc(OCC2OC(C#N)C(Oc3ccc(C)cc3)C2Oc2ccc(C)cc2)cc1 (stereo not drawn) | – | > 100 | > 100 | > 100 | > 100 | > 100 | > 100 | – | > 100 | > 100 | > 100 | > 100 | > 100 | > 100 | > 100 | > 100 | > 100 | > 100 | > 100 | > 100
Cc1ccc(S(=O)(=O)OC2=C/C(=N\c3onc(C)c3C)c3ccccc3C2=O)cc1 | 43.3 | > 100 | 30.7 | 77.1 | 18.9 | – | 53.8 | > 100 | 42.1 | > 100 | 57.7 | > 100 | > 100 | 21.1 | > 100 | 31.8 | > 100 | 38.7 | 73.8 | 24.2
